Active and inactive are the calls of the source. How the calls were made is not given here.
Test system: CCRIS mutagenicity, Ames/micronucleus/aberration tests
Experiment: CCRIS mutagenicity studies
[1] = Test System: AMES SALMONELLA TYPHIMURIUM, Strain/Indicator: TA98, Metabolic Activation: NONE, Method: STANDARD PLATE
[2] = Test System: AMES SALMONELLA TYPHIMURIUM, Strain/Indicator: TA100, Metabolic Activation: NONE, Method: STANDARD PLATE
[3] = Test System: AMES SALMONELLA TYPHIMURIUM, Strain/Indicator: TA1535, Metabolic Activation: NONE, Method: STANDARD PLATE
[4] = Test System: AMES SALMONELLA TYPHIMURIUM, Strain/Indicator: TA1537, Metabolic Activation: NONE, Method: STANDARD PLATE

N#Cc1cc(Br)c(O)c(Br)c1 was tested, and the mutagenic call (Test System: AMES SALMONELLA TYPHIMURIUM, Strain/Indicator: TA98, Metabolic Activation: HAMSTER, LIVER, S-9, AROCLOR 1254 (10%), Method: STANDARD PLATE) was “inactive; negative”, the mutagenic call [1] was “inactive; negative” and the mutagenic call (Test System: AMES SALMONELLA TYPHIMURIUM, Strain/Indicator: TA98, Metabolic Activation: RAT, LIVER, S-9, AROCLOR 1254 (10%), Method: STANDARD PLATE) was “inactive; negative”. For the same compound, the mutagenic call (Test System: AMES SALMONELLA TYPHIMURIUM, Strain/Indicator: TA100, Metabolic Activation: HAMSTER, LIVER, S-9, AROCLOR 1254 (10%), Method: STANDARD PLATE) was “inactive; negative”, the mutagenic call [2] was “inactive; negative” and the mutagenic call (Test System: AMES SALMONELLA TYPHIMURIUM, Strain/Indicator: TA100, Metabolic Activation: RAT, LIVER, S-9, AROCLOR 1254 (10%), Method: STANDARD PLATE) was “inactive; negative”. The mutagenic call (Test System: AMES SALMONELLA TYPHIMURIUM, Strain/Indicator: TA1535, Metabolic Activation: HAMSTER, LIVER, S-9, AROCLOR 1254 (10%), Method: STANDARD PLATE) was “inactive; negative”, the mutagenic call [3] was “inactive; negative” and the mutagenic call (Test System: AMES SALMONELLA TYPHIMURIUM, Strain/Indicator: TA1535, Metabolic Activation: RAT, LIVER, S-9, AROCLOR 1254 (10%), Method: STANDARD PLATE) was “inactive; negative”. The mutagenic call (Test System: AMES SALMONELLA TYPHIMURIUM, Strain/Indicator: TA1537, Metabolic Activation: HAMSTER, LIVER, S-9, AROCLOR 1254 (10%), Method: STANDARD PLATE) was “inactive; negative”, the mutagenic call [4] was “inactive; negative” and the mutagenic call (Test System: AMES SALMONELLA TYPHIMURIUM, Strain/Indicator: TA1537, Metabolic Activation: RAT, LIVER, S-9, AROCLOR 1254 (10%), Method: STANDARD PLATE) was “inactive; negative”. The mutagenic call (Test System: AMES SALMONELLA TYPHIMURIUM, Strain/Indicator: TA1538, Metabolic Activation: HAMSTER, LIVER, S-9, AROCLOR 1254 (10%), Method: STANDARD PLATE) was “inactive; negative”, the mutagenic call (Test System: AMES SALMONELLA TYPHIMURIUM, Strain/Indicator: TA1538, Metabolic Activation: NONE, Method: STANDARD PLATE) was “inactive; negative” and the mutagenic call (Test System: AMES SALMONELLA TYPHIMURIUM, Strain/Indicator: TA1538, Metabolic Activation: RAT, LIVER, S-9, AROCLOR 1254 (10%), Method: STANDARD PLATE) was “inactive; negative”. The mutagenic call (Test System: MOUSE LYMPHOMA, Strain/Indicator: L5178Y (TK+/TK-), Metabolic Activation: RAT, LIVER, S-9, AROCLOR 1254, Method: SUSPENSION/PLATE) was “active; positive. reevaluation of results: equivocal” and the mutagenic call (Test System: Mouse lymphoma, Strain/Indicator: L5178Y (tk+/tk-), Metabolic Activation: None, Method: Suspension/plate) was “inactive; negative”.
In the case of O=C1[C@H]2CC=CC[C@H]2C(=O)N1SC(Cl)(Cl)Cl, the mutagenic call (Test System: AMES SALMONELLA TYPHIMURIUM, Strain/Indicator: G46, Metabolic Activation: MOUSE, LIVER, S-9, PHENOBARBITAL, Method: STANDARD PLATE) was “active; positive”, the mutagenic call (Test System: AMES SALMONELLA TYPHIMURIUM, Strain/Indicator: TA97A, Metabolic Activation: NONE, Method: STANDARD PLATE) was “active; positive” and the mutagenic call (Test System: AMES SALMONELLA TYPHIMURIUM, Strain/Indicator: TA97A, Metabolic Activation: RAT, LIVER, S-9, AROCLOR 1254, Method: STANDARD PLATE) was “inactive; negative”. For the same compound, the mutagenic call (Test System: AMES SALMONELLA TYPHIMURIUM, Strain/Indicator: TA98, Metabolic Activation: NONE) was “active; positive”, the mutagenic call (Test System: AMES SALMONELLA TYPHIMURIUM, Strain/Indicator: TA98, Metabolic Activation: RAT, LIVER, S-9, AROCLOR 1254) was “active; positive” and the mutagenic call (Test System: AMES SALMONELLA TYPHIMURIUM, Strain/Indicator: TA98, Metabolic Activation: RAT, LIVER, S-9, AROCLOR 1254, Method: STANDARD PLATE) was “active; positive”. For the same compound, the mutagenic call (Test System: AMES SALMONELLA TYPHIMURIUM, Strain/Indicator: TA100, Metabolic Activation: NONE) was “active; positive”, the mutagenic call (Test System: AMES SALMONELLA TYPHIMURIUM, Strain/Indicator: TA100, Metabolic Activation: NONE, Method: PREINCUBATION) was “active; positive” and the mutagenic call (Test System: AMES SALMONELLA TYPHIMURIUM, Strain/Indicator: TA100, Metabolic Activation: RAT, LIVER, S-9, AROCLOR 1254) was “active; positive”. The mutagenic call (Test System: AMES SALMONELLA TYPHIMURIUM, Strain/Indicator: TA100, Metabolic Activation: RAT, LIVER, S-9, Method: STANDARD PLATE) was “active; positive”, the mutagenic call (Test System: AMES SALMONELLA TYPHIMURIUM, Strain/Indicator: TA100, Metabolic Activation: S-9 MIX, Method: STANDARD PLATE) was “active; positive” and the mutagenic call (Test System: AMES SALMONELLA TYPHIMURIUM, Strain/Indicator: TA102, Metabolic Activation: NONE) was “active; positive”. For the same compound, the mutagenic call (Test System: AMES SALMONELLA TYPHIMURIUM, Strain/Indicator: TA102, Metabolic Activation: RAT, LIVER, S-9, AROCLOR 1254) was “active; positive”, the mutagenic call (Test System: AMES SALMONELLA TYPHIMURIUM, Strain/Indicator: TA102, Metabolic Activation: RAT, LIVER, S-9, AROCLOR 1254, Method: STANDARD PLATE) was “inactive; negative” and the mutagenic call (Test System: AMES SALMONELLA TYPHIMURIUM, Strain/Indicator: TA102, Metabolic Activation: RAT, LIVER, S-9, PHENOBARBITAL, Method: STANDARD PLATE) was “inactive; negative”. The mutagenic call (Test System: AMES SALMONELLA TYPHIMURIUM, Strain/Indicator: TA104, Metabolic Activation: RAT, LIVER, S-9, AROCLOR 1254, Method: STANDARD PLATE) was “inactive; negative”, the mutagenic call (Test System: AMES SALMONELLA TYPHIMURIUM, Strain/Indicator: TA104, Metabolic Activation: RAT, LIVER, S-9, PHENOBARBITAL, Method: STANDARD PLATE) was “active; positive” and the mutagenic call (Test System: AMES SALMONELLA TYPHIMURIUM, Strain/Indicator: TA1535, Metabolic Activation: MOUSE, LIVER, S-9, PHENOBARBITAL, Method: STANDARD PLATE) was “active; positive”. For the same compound, the mutagenic call (Test System: AMES SALMONELLA TYPHIMURIUM, Strain/Indicator: TA1535, Metabolic Activation: NONE) was “active; positive”, the mutagenic call [3] was “active; positive” and the mutagenic call (Test System: AMES SALMONELLA TYPHIMURIUM, Strain/Indicator: TA1535, Metabolic Activation: RAT, LIVER, S-9, AROCLOR 1254) was “active; positive”. The mutagenic call (Test System: AMES SALMONELLA TYPHIMURIUM, Strain/Indicator: TA1535, Metabolic Activation: RAT, LIVER, S-9, PHENOBARBITAL, Method: STANDARD PLATE) was “active; positive”, the mutagenic call (Test System: AMES SALMONELLA TYPHIMURIUM, Strain/Indicator: TA1537, Metabolic Activation: NONE) was “active; positive” and the mutagenic call [4] was “active; positive”. The mutagenic call (Test System: AMES SALMONELLA TYPHIMURIUM, Strain/Indicator: TA1537, Metabolic Activation: RAT, LIVER, S-9, AROCLOR 1254) was “active; positive”, the mutagenic call (Test System: AMES SALMONELLA TYPHIMURIUM, Strain/Indicator: TA1537, Metabolic Activation: RAT, LIVER, S-9, PHENOBARBITAL, Method: STANDARD PLATE) was “active; positive” and the mutagenic call (Test System: AMES SALMONELLA TYPHIMURIUM, Strain/Indicator: TA1950, Metabolic Activation: NONE, Method: SPOT) was “active; positive”. For the same compound, the mutagenic call (Test System: Ames Salmonella typhimurium, Strain/Indicator: TA100, Metabolic Activation: None, Method: Preincubation) was “active; positive”, the mutagenic call (Test System: Ames Salmonella typhimurium, Strain/Indicator: TA1975P, Metabolic Activation: None, Method: Preincubation) was “active; positive (at higher doses)” and the mutagenic call (Test System: CHINESE HAMSTER OVARY, Strain/Indicator: CHO-K1-BH4 (HGPRT), Metabolic Activation: RAT, LIVER, S-9, AROCLOR, Method: SUSPENSION/PLATE) was “active; positive”. For the same compound, the mutagenic call (Test System: CHINESE HAMSTER V-79, Strain/Indicator: V-79/8-AZAGUANINE, Metabolic Activation: NONE, Method: STANDARD PLATE) was “active; positive”, the mutagenic call (Test System: CHINESE HAMSTER V-79, Strain/Indicator: V-79/OUABAIN, Metabolic Activation: NONE, Method: STANDARD PLATE) was “active; positive” and the mutagenic call (Test System: E. COLI, Strain/Indicator: WP2, Metabolic Activation: NONE, Method: STANDARD PLATE) was “active; positive”. The mutagenic call (Test System: E. COLI, Strain/Indicator: WP2, Metabolic Activation: RAT, LIVER, S-9, Method: STANDARD PLATE) was “active; positive”, the mutagenic call (Test System: E. COLI, Strain/Indicator: WP2 UVRA, Metabolic Activation: NONE, Method: STANDARD PLATE) was “active; positive” and the mutagenic call (Test System: E. COLI, Strain/Indicator: WP2 UVRA, Metabolic Activation: RAT, LIVER, S-9, AROCLOR 1254, Method: STANDARD PLATE) was “active; positive”.
For CC[C@@H](CO)NCCN[C@@H](CC)CO, the mutagenic call [1] was “inactive; negative”, the mutagenic call (Test System: AMES SALMONELLA TYPHIMURIUM, Strain/Indicator: TA98, Metabolic Activation: S-9, Method: STANDARD PLATE) was “inactive; negative” and the mutagenic call [2] was “inactive; negative”. The mutagenic call (Test System: AMES SALMONELLA TYPHIMURIUM, Strain/Indicator: TA100, Metabolic Activation: S-9, Method: STANDARD PLATE) was “inactive; negative”.
With Oc1ccc2[nH]c3ccccc3c2c1 the mutagenic call (Test System: CHINESE HAMSTER OVARY, Strain/Indicator: CHO-K1-BH4 (HGPRT)/6-THIOGUANINE, Metabolic Activation: RAT, LIVER, S-9, AROCLOR (4%)) was “active; positive”.

Source: PubChem BioAssay AID1259407 (Chemical Carcinogenesis Research Information System (CCRIS), 2018)
